According to US8093378B2, “Crystallization method for intermediates of carbapenem antibiotics” (Kaneka Corporation, priority 2006, dated 2012):

How the values were obtained:
[1] = Bulk density of crystals passing a 500 μm sieve (tapped); assay type: physicochemical; conditions: crystals with particle size 500 μm or less; weight of crystals/volume of crystals after tapping
Protocol: Arbitrarily, 3.0 g of Compound (1) in a crystalline form obtained in each of Example 1, Comparative example 1, Example 2 and Comparative example 2 was taken out, and was passed through a test sieve with a diameter of 8 cm and a mesh size of 500 μm in accordance with the Japanese Industrial Standard (JIS Z 8801), and the bulk density of the crystals passing through the sieve was measured. […] The bulk density was calculated by using “weight of crystals”/“volume of crystals” as a calculation method.

[2] = Storage stability of the crystals at 60° C. (remaining activity by HPLC); assay type: physicochemical
Protocol: About 500 mg of Compound (1) in a crystalline form obtained in each of Example 1 and Comparative example 1 was weighed out in a glass bottle, and the bottle was tightly sealed. Then, the bottle was left in a constant-temperature room at 60° C. for 8 days.

[3] = Particle size distribution of crystals by sieving (JIS Z 8801 / JIS Z 8901); assay type: physicochemical; conditions: for ratio of weight of crystals, particle size <177 μm: mesh size <177 μm; for ratio of weight of crystals, particle size <350, ≧177 μm: mesh size <350, ≧177 μm; for ratio of weight of crystals, particle size ≧350 μm: mesh size ≧350 μm
Text: Arbitrarily, 3.0 g of Compound (1) in a crystalline form obtained in each of Example 2, Comparative example 2, Example 3 and Comparative example 3 was taken out. Test sieves with a mesh size in accordance with the Japanese Industrial Standard (JIS Z 8801), having a mesh size of 500 μm, 420 μm, 350 μm, 250 μm, 177 μm, 149 μm, 125 μm, 74 μm or 44 μm and an inner diameter of 8 cm, were used, and were shaken by hand in accordance with the measurement procedure of the standard sieving method specified in JIS Z 8901. The results obtained by comparing the particle size distributions between the “crystal of Example 2” and the “crystal of Comparative example 2”, and between the “crystal of Example 3” and the “crystal of Comparative example 3” are shown in Table 3.

[4] = stored at 40° C. for 20 days, crystalline form; cited from earlier work
[5] = Day 1 (set as 100%), crystal in sealed glass bottle at 60° C.
[6] = Day 4, crystal in sealed glass bottle at 60° C.
[7] = Day 6, crystal in sealed glass bottle at 60° C.
[8] = Day 8, crystal in sealed glass bottle at 60° C.

Row | Structure (SMILES) | Bulk Density [1] | remaining activity [2, 5] | remaining activity [2, 6] | remaining activity [2, 7] | remaining activity [2, 8] | ratio of weight of crystals, particle size <177 μm [3] | ratio of weight of crystals, particle size <350, ≧177 μm [3] | ratio of weight of crystals, particle size ≧350 μm [3] | decomposition on storage [4] | decomposition ([2]; storage at 60° C., 8 days, crystal obtained by the same method as Patent document 4)
1 | C[C@@H](O)[C@H]1C(=O)N2C(C(=O)OCc3ccc([N+](=O)[O-])cc3)=C(OP(=O)(Oc3ccccc3)Oc3ccccc3)[C@H](C)[C@H]12 [Comparative Example 1, p-nitrobenzyl (4R,5R,6S)-1-aza-3-diphenyloxyphosphoryloxy-6-[(1R)-1-hydroxyethyl]-4-methyl-7-oxobicyclo[3.2.0]hept-2-en-2-carboxylate, reference compound] | 0.37 | 100% | 96% | 87% | 80% | – | – | – | – | –
2 | C[C@@H](O)[C@H]1C(=O)N2C(C(=O)OCc3ccc([N+](=O)[O-])cc3)=C(OP(=O)(Oc3ccccc3)Oc3ccccc3)[C@H](C)[C@H]12 [Comparative example 2, p-nitrobenzyl (4R,5R,6S)-1-aza-3-diphenyloxyphosphoryloxy-6-[(1R)-1-hydroxyethyl]-4-methyl-7-oxobicyclo[3.2.0]hept-2-en-2-carboxylate, reference compound] | 0.36 | – | – | – | – | 34% | 47% | 19% | – | –
3 | C[C@@H](O)[C@H]1C(=O)N2C(C(=O)OCc3ccc([N+](=O)[O-])cc3)=C(OP(=O)(Oc3ccccc3)Oc3ccccc3)[C@H](C)[C@H]12 [Comparative example 3, p-nitrobenzyl (4R,5R,6S)-1-aza-3-diphenyloxyphosphoryloxy-6-[(1R)-1-hydroxyethyl]-4-methyl-7-oxobicyclo[3.2.0]hept-2-en-2-carboxylate, reference compound] | – | – | – | – | – | 25% | 45% | 30% | – | –
4 | C[C@@H](O)[C@H]1C(=O)N2C(C(=O)OCc3ccc([N+](=O)[O-])cc3)=C(OP(=O)(Oc3ccccc3)Oc3ccccc3)[C@H](C)[C@H]12 [Compound (1), p-nitrobenzyl (4R,5R,6S)-1-aza-3-diphenyloxyphosphoryloxy-6-[(1R)-1-hydroxyethyl]-4-methyl-7-oxobicyclo[3.2.0]hept-2-en-2-carboxylate] | – | – | – | – | – | – | – | – | not decomposed | 20%
5 | C[C@@H](O)[C@H]1C(=O)N2C(C(=O)OCc3ccc([N+](=O)[O-])cc3)=C(OP(=O)(Oc3ccccc3)Oc3ccccc3)[C@H](C)[C@H]12 [Example 1, p-nitrobenzyl (4R,5R,6S)-1-aza-3-diphenyloxyphosphoryloxy-6-[(1R)-1-hydroxyethyl]-4-methyl-7-oxobicyclo[3.2.0]hept-2-en-2-carboxylate] | 0.43 | 100% | 97% | 92% | 88% | – | – | – | – | –
6 | C[C@@H](O)[C@H]1C(=O)N2C(C(=O)OCc3ccc([N+](=O)[O-])cc3)=C(OP(=O)(Oc3ccccc3)Oc3ccccc3)[C@H](C)[C@H]12 [Example 2, p-nitrobenzyl (4R,5R,6S)-1-aza-3-diphenyloxyphosphoryloxy-6-[(1R)-1-hydroxyethyl]-4-methyl-7-oxobicyclo[3.2.0]hept-2-en-2-carboxylate] | 0.40 | – | – | – | – | 10% | 41% | 49% | – | –
7 | C[C@@H](O)[C@H]1C(=O)N2C(C(=O)OCc3ccc([N+](=O)[O-])cc3)=C(OP(=O)(Oc3ccccc3)Oc3ccccc3)[C@H](C)[C@H]12 [Example 3, p-nitrobenzyl (4R,5R,6S)-1-aza-3-diphenyloxyphosphoryloxy-6-[(1R)-1-hydroxyethyl]-4-methyl-7-oxobicyclo[3.2.0]hept-2-en-2-carboxylate] | – | – | – | – | – | 18% | 36% | 46% | – | –
